Test results: patent US20200165194A1, “ADDITIVE COMPOSITION FOR CULTURE MEDIUM, ADDITIVE COMPOUND FOR CULTURE MEDIUM, AND METHOD FOR CULTURE OF CELLS OR TISSUE USING SAME” (NISSAN CHEMICAL CORPORATION, priority 2017, published 2020)
Read-outs that look alike come from different tables or passages of the source.

Columns and labels:
[1] = tested on: human ovarian cancer cell line SKOV3; assay: Various human cancer cells-2, 3D culture, ATP assay (Experimental Example 6); type: cell-based; settings: 4 days; for viability at 5 µM / viability at 10 µM: Homo sapiens, SK-OV-3, 96 h, read-out: number of viable cells (RLU), relative value to control (100%)
Experimental: (§1) Various human-derived cancer cells were precultured (single layer culture) in respective media shown below. […] The above-mentioned cells in the logarithmic growth phase were washed with PBS, a 0.25 w/v % trypsin-1 mmol/L EDTA (ethylenediaminetetraacetic acid) solution (manufactured by Wako Pure Chemical Industries, Ltd.) was added, and adherent cells were detached by incubating at 37° C. for 1-5 min. Each medium was added and the mixture was centrifuged. After resuspension in the same medium, each cell was recovered.
(§2) The aforementioned various cells were suspended in respective deacylated gellan gum-containing or not containing media (deacylated gellan gum concentration was 0.015 w/v %), and seeded in a 96 well low attachment U-bottom plate (manufactured by Corning, #4520, deacylated gellan gum-free medium), or a low attachment flat bottom plate (manufactured by Corning, #3474, deacylated gellan gum-containing medium) at a cell concentration of 700-12000 cells/90 μL/well (all 3D culture). […] The amount of each compound solution to be added was 10 μL/well. As a control, a DMSO solution dissolved in a medium was added (DMSO final concentration 0.1%). […] When compared with the compound no-addition (control), one showing a value of not more than 119% as -, one showing a value of not less than 120% as ◯, and one showing a value of not less than 150% as ⊚ are shown in the eleventh table and the twelfth table. Unperformed test is left blank.

[2] = tested on: human alveolar basal epithelial adenocarcinoma-derived cell line A549; assay: as above; type: cell-based; settings: 4 days; for viability at 5 µM / viability at 10 µM: Homo sapiens, A549, 96 h, read-out: number of viable cells (RLU), relative value to control (100%)
Experimental: as §1, §2

[3] = tested on: Bone marrow-derived human mesenchymal stem cells (BM-hMSC); assay: Human mesenchymal stem cell-2: 3D, EZSPHERE and 2D culture, ATP assay (Experimental Example 10); type: cell-based; settings: for viability at 1 µM / viability at 5 µM / viability at 10 µM / viability at 20 µM: Homo sapiens, Mesenchymal stem cells, 96 h, BM-hMSC, 4 days, non-addition = 100%, read-out: relative value of RLU (number of viable cells)
Experimental: Bone marrow-derived human mesenchymal stem cells (BM-hMSC, manufactured by PromoCell) were precultured by a single layer culture method (2D) using a mesenchymal stem cell proliferation medium (manufactured by PromoCell). In three-dimensional culture method (3D), hMSC was suspended in a medium composition added with deacylated gellan gum, and seeded in a […] flat bottom Ultr-low Attachment surface plate (manufactured by Corning Incorporated, #3474) at 6000 cells/90 μL/well. In the three-dimensional culture method using EZSPHERE (EZSPHERE), hMSC was suspended in a deacylated gellan gum-free medium composition, and seeded in a 96-well EZSPHERE plate (manufactured by AGC TECHNO GLASS CO., LTD., #4860-900) at 2000 cells/90 μL/well. In 2D, hMSC was suspended in a deacylated gellan gum-free medium composition, and seeded in a 96-well flat bottom plate (manufactured by Corning Incorporated, #3585) at 2000 cells/90 μL/well. […] As a control, DMSO was added at a final concentration of 0.1%.

[4] = tested on: human ovarian cancer cell line SKOV3; assay: Action on SKOV3 cell-2: 3D (deacylated gellan gum) and 2D culture, EGF medium, ATP assay (Experimental Example 3); settings: for viability at 1 µM / viability at 5 µM / viability at 10 µM / viability at 20 µM: Homo sapiens, SK-OV-3, 96 h, 4 days, compound non-addition = 100%
Experimental: According to the method of patent document 1 (WO 2014/017513), a composition of McCoy's 5a medium (manufactured by Sigma-Aldrich) containing 0.015% (w/v) deacylated gellan gum (KELCOGEL CG-LA, manufactured by Sansho Co., Ltd.) and 15% (v/v) FBS, 30 ng/mL human EGF (manufactured by PEPROTECH) was prepared using FCeM-series Preparation Kit (manufactured by Wako Pure Chemical Industries, Ltd.). In a single layer culture, a non-addition medium composition not containing deacylated gellan gum was prepared. Then, human ovarian cancer cell line SKOV3 (manufactured by DS PHARMA BIO MEDICAL) was suspended in the above-mentioned medium composition added with deacylated gellan gum, and dispensed into the wells of a 384 well flat bottom Ultr-low Attachment surface microplate (manufactured by Corning Incorporated, #3827) at 1000 cells/36 μL/well (three-dimensional culture (3D)). In a single layer culture (2D), human ovarian cancer cell line SKOV3 was suspended in the above-mentioned medium composition not containing deacylated gellan gum, and dispensed into the wells of a 384 well flat bottom microplate (manufactured by Corning Incorporated, #3712) at 400 cells/36 μL per well. After dispensing, the compound to be used in the present invention dissolved in dimethyl sulfoxide (DMSO) was added by 4 μL each at a final concentration of 0, 1, 5, 10, 20 μM, and continuously cultured for 4 days. Each plate was cultured in a standing state in a CO2 incubator (37° C., 5% CO2) for 4 days. An ATP reagent (40 μL) (CellTiter-Glo (registered trade mark) Luminescent Cell Viability Assay, manufactured by Promega) was added to the culture medium on day 4, and the mixture was stirred by a plateshaker (manufactured by AS ONE Corporation, Micro plate mixer NS-P) at room temperature for 15 min. The luminescence intensity (RLU value) was measured by EnSpire (manufactured by Perkin Elmer) and the luminescence value of the medium alone was subtracted to measure the number of viable cells.

[5] = tested on: a plurality of cancer cell lines; assay: Various human cancer cells-2, summary over the cell lines (Experimental Example 6); type: cell-based; settings: cancer cell lines under three-dimensional conditions
Experimental: as §1, §2

[6] = low attachment U-bottom plate, 5 μM
[7] = low attachment U-bottom plate, 10 μM
[8] = low attachment flat bottom plate (gellan gum medium), 5 μM
[9] = low attachment flat bottom plate (gellan gum medium), 10 μM
[10] = three-dimensional cell culture conditions
[11] = read-out: relative value of RLU (number of viable cells), 2D single layer culture
[12] = read-out: relative value of RLU (number of viable cells), 3D culture (deacylated gellan gum)
[13] = single layer culture (2D) of SKOV3 cells
[14] = three-dimensional culture (3D) of SKOV3 cells

| Compound | viability at 1 µM ([3]; 2D) | viability at 5 µM ([3]; 2D) | viability at 10 µM ([3]; 2D) | viability at 20 µM ([3]; 2D) | viability at 1 µM ([3]; 3D (deacylated gellan gum)) | viability at 5 µM ([3]; 3D (deacylated gellan gum)) | viability at 10 µM ([3]; 3D (deacylated gellan gum)) | viability at 20 µM ([3]; 3D (deacylated gellan gum)) | viability at 1 µM ([3]; EZSPHERE plate) | viability at 5 µM ([3]; EZSPHERE plate) | viability at 10 µM ([3]; EZSPHERE plate) | viability at 20 µM ([3]; EZSPHERE plate) | proliferation activity (in words) [3, 10] | viability at 1 µM [4, 11] | viability at 5 µM [4, 11] | viability at 10 µM [4, 11] | viability at 20 µM [4, 11] | viability at 1 µM [4, 12] | viability at 5 µM [4, 12] | viability at 10 µM [4, 12] | further results |
| --- | --- | --- | --- | --- | --- | --- | --- | --- | --- | --- | --- | --- | --- | --- | --- | --- | --- | --- | --- | --- | --- |
| CC/C(=N\NC(=O)NCc1ccccc1)c1ccc(O)c(C)c1O [k-1:I-1] | 107% | 98% | 104% | 107% | 100% | 123% | 150% | 177% | 101% | 120% | 144% | 163% | promoted proliferation activity of BM-hMSC | 99% | 98% | 94% | 92% | 106% | 111% | 123% | viability at 5 µM [1, 6]: 120 to 150%; viability at 10 µM [1, 7]: 120 to 150%; viability at 5 µM [1, 8]: < 119%; viability at 10 µM [1, 9]: 120 to 150%; viability at 5 µM [2, 6]: < 119%; viability at 10 µM [2, 7]: < 119%; viability at 5 µM [2, 8]: < 119%; viability at 10 µM [2, 9]: 120 to 150%; viability at 20 µM [4, 12]: 141%; cell proliferation promoting effect (in words) [4, 13]: a favorable cell proliferation promoting effect was not observed; cell proliferation promoting effect (in words) [4, 14]: exhibited cell proliferation promoting effect at a wide concentration range; proliferation activity (in words) [5]: promoted proliferation activity in a plurality of cancer cell lines |
| CC/C(=N\NC(=O)CNc1cccc(O)c1)c1ccc(O)c(C)c1O [k-1:D-1] | 111% | 125% | 112% | 92% | 170% | 640% | 771% | 688% | 169% | 310% | 339% | 275% | promoted proliferation activity of BM-hMSC | 95% | 102% | 98% | 83% | 140% | 174% | 168% | number of viable cells (RLU), relative value to control (100%) [1, 6]: ⊙; number of viable cells (RLU), relative value to control (100%) [1, 7]: ⊙; number of viable cells (RLU), relative value to control (100%) [1, 8]: ⊙; number of viable cells (RLU), relative value to control (100%) [1, 9]: ⊙; number of viable cells (RLU), relative value to control (100%) [2, 6]: ⊙; number of viable cells (RLU), relative value to control (100%) [2, 7]: ⊙; number of viable cells (RLU), relative value to control (100%) [2, 8]: ⊙; number of viable cells (RLU), relative value to control (100%) [2, 9]: ⊙; viability at 20 µM [4, 12]: 136%; cell proliferation promoting effect (in words) [4, 13]: a favorable cell proliferation promoting effect was not observed; cell proliferation promoting effect (in words) [4, 14]: exhibited cell proliferation promoting effect at a wide concentration range; proliferation activity (in words) [5]: promoted proliferation activity in a plurality of cancer cell lines |
| CC/C(=N\NC(=O)C(C)Nc1ccccc1)c1ccc(O)c(C)c1O (stereo not shown) [k-1:B-1] | 109% | 125% | 158% | 164% | 139% | 298% | 418% | 420% | 154% | 247% | 297% | 278% | promoted proliferation activity of BM-hMSC | 95% | 99% | 97% | 74% | 127% | 181% | 177% | number of viable cells (RLU), relative value to control (100%) [1, 6]: ⊙; number of viable cells (RLU), relative value to control (100%) [1, 7]: ⊙; number of viable cells (RLU), relative value to control (100%) [1, 8]: ⊙; number of viable cells (RLU), relative value to control (100%) [1, 9]: ⊙; number of viable cells (RLU), relative value to control (100%) [2, 6]: ⊙; number of viable cells (RLU), relative value to control (100%) [2, 7]: ⊙; number of viable cells (RLU), relative value to control (100%) [2, 8]: ⊙; number of viable cells (RLU), relative value to control (100%) [2, 9]: ⊙; proliferation activity (in words) ([3]; two-dimensional cell culture conditions): promoted proliferation activity of hMSC; viability at 20 µM [4, 12]: 158%; cell proliferation promoting effect (in words) [4, 13]: a favorable cell proliferation promoting effect was not observed; cell proliferation promoting effect (in words) [4, 14]: exhibited cell proliferation promoting effect at a wide concentration range; proliferation activity (in words) [5]: promoted proliferation activity in a plurality of cancer cell lines |
